Where two headings read alike, the source gives them in different places.
Columns and labels:
Assay in all cases: biochemical
Design in all cases: DiscoveRx KINOMEscan active site-directed competition binding; percent of control kinase bound to immobilised ligand
[1] = biological target: T1, RSK2(Kin.Dom.2-C-terminal) (Homo sapiens, UniProt P51812)
T1 construct: gene RPS6KA3; Kin.Dom.2-C-terminal

[2] = biological target: T2, SGK2 (Homo sapiens, UniProt Q9HBY8)
T2 sequence (Q9HBY8 1-367): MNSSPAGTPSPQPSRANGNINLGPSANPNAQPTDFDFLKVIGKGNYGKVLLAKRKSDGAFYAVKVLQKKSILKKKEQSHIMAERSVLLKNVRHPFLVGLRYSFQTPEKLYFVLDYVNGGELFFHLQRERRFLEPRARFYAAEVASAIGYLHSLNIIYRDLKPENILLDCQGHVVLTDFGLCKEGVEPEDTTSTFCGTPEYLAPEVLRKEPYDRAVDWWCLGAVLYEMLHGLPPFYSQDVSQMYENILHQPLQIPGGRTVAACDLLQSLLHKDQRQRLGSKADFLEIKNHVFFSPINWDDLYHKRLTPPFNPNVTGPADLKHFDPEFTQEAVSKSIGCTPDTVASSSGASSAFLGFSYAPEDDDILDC

[3] = biological target: T3, MAPKAPK5 (Homo sapiens, UniProt Q8IW41)
T3 sequence (Q8IW41 1-473): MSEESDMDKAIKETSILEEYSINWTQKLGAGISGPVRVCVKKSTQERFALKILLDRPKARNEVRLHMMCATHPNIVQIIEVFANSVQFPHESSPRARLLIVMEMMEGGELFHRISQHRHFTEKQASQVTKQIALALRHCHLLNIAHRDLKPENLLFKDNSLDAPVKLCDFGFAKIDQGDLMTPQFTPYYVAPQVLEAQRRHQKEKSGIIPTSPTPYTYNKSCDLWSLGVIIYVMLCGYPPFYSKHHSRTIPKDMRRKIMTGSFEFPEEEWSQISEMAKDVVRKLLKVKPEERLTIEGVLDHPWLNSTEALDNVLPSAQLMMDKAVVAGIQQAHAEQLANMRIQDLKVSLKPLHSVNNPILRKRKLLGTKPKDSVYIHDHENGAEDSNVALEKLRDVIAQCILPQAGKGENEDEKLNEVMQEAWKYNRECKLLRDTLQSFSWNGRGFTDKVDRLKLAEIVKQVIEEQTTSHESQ

[4] = biological target: KIT(D816V) (Homo sapiens, UniProt P10721, D816V)
KIT(D816V), sequence (P10721 whole entry D816V): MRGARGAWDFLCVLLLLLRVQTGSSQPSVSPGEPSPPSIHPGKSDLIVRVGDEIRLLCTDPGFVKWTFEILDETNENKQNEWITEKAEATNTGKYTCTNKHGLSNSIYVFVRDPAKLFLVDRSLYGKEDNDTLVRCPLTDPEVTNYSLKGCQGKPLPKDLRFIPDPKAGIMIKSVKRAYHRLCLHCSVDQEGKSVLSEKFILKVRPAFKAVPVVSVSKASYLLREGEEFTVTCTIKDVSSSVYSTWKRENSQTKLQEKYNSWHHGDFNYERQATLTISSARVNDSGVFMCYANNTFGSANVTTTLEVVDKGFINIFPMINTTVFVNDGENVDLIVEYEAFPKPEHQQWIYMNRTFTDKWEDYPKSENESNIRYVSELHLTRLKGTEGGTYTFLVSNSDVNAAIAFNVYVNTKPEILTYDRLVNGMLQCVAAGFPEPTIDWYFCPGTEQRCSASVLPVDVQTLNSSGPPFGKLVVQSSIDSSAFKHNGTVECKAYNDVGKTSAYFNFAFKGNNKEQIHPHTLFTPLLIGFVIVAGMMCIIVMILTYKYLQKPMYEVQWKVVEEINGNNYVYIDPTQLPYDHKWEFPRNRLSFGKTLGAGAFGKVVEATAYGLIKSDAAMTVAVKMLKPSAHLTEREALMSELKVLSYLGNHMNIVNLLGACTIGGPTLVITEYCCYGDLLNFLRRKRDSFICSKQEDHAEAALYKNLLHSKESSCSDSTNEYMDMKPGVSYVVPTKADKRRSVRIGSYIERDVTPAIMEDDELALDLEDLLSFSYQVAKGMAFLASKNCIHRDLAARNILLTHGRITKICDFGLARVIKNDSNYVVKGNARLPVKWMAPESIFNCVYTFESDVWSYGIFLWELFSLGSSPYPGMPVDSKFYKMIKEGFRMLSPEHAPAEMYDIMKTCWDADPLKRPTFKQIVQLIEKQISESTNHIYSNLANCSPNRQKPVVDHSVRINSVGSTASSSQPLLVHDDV

[5] = biological target: T4, TAOK3 (Homo sapiens, UniProt Q9H2K8)
T4 sequence (Q9H2K8 1-898): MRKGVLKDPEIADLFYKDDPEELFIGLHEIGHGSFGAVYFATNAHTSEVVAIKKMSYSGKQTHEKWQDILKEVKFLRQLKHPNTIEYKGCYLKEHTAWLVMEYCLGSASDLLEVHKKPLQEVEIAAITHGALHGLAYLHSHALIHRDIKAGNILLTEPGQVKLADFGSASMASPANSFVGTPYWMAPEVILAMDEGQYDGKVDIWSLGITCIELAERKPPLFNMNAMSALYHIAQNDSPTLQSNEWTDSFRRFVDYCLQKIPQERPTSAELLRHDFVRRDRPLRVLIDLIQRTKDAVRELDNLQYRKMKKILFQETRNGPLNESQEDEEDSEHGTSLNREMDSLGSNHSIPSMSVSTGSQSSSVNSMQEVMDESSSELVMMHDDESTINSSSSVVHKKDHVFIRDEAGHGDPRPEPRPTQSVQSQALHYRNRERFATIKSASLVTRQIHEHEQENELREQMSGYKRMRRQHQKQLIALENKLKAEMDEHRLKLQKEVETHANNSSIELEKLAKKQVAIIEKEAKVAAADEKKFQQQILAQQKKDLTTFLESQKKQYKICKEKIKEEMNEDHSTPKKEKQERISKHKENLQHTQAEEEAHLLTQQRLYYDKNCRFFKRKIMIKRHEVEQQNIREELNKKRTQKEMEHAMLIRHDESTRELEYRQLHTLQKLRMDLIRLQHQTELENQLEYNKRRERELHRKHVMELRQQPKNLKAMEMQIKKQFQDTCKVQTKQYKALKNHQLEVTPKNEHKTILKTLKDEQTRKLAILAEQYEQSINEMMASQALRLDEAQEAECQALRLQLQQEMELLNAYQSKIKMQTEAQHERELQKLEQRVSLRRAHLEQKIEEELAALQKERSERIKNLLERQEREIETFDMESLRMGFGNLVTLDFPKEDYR

[6] = biological target: T5, NEK5 (Homo sapiens, UniProt Q6P3R8)
T5 sequence (Q6P3R8 1-708): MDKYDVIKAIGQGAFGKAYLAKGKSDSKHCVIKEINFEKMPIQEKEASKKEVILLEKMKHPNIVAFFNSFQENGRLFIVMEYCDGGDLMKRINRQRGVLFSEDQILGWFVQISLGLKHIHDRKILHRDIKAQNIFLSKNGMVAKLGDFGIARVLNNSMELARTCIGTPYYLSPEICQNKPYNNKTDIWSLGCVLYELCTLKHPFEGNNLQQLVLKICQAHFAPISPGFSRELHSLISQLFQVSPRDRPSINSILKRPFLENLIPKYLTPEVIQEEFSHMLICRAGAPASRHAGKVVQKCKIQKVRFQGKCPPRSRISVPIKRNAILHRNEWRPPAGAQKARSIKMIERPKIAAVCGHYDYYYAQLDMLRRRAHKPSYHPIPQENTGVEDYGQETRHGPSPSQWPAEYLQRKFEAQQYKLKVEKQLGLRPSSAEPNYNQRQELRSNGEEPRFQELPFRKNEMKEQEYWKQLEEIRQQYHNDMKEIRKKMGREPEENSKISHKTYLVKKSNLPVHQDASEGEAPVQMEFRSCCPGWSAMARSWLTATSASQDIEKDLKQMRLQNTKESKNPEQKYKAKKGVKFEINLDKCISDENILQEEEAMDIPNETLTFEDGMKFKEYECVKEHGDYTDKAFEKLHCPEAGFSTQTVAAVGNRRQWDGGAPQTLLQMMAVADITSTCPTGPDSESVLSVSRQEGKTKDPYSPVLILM

[7] = read-out: Niraparib (MK-4827) / %Ctrl @ 10000nM
[8] = read-out: Olaparib / %Ctrl @ 10000nM
[9] = read-out: Rucaparib / %Ctrl @ 10000nM, binding competition, % of control
[10] = read-out: Talazoparib (BMN 673) / %Ctrl @ 10000nM

T1 sequence (P51812 whole entry): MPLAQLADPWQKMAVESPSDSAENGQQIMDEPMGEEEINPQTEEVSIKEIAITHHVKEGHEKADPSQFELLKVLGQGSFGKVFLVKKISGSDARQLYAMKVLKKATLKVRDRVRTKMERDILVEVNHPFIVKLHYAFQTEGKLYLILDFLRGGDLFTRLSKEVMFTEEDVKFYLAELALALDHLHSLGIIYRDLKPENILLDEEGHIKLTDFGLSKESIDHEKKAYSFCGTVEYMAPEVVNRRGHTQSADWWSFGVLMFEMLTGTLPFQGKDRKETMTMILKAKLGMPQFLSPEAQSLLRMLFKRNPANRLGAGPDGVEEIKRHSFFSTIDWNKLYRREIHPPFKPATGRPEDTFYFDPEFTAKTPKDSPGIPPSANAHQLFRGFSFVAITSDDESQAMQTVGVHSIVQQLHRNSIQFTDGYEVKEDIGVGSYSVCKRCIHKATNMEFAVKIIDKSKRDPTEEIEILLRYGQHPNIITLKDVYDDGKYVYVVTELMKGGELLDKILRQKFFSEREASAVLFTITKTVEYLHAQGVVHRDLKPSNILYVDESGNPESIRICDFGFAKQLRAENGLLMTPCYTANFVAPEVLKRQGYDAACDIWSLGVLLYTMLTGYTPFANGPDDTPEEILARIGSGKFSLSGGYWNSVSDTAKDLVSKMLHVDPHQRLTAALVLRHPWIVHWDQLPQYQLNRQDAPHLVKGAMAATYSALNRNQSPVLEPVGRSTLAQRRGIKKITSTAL

NC(=O)c1cccc2cn(-c3ccc([C@@H]4CCCNC4)cc3)nc12 [Niraparib]
percent of control binding at 10 µM [1, 7]: 100%
percent of control binding at 10 µM [2, 7]: 96%
percent of control binding at 10 µM [3, 7]: 86%
percent of control binding at 10 µM [4, 7]: 89%
percent of control binding at 10 µM [5, 7]: 100%
percent of control binding at 10 µM [6, 7]: 89%

O=C(c1cc(Cc2n[nH]c(=O)c3ccccc23)ccc1F)N1CCN(C(=O)C2CC2)CC1 [Olaparib]
percent of control binding at 10 µM [1, 8]: 72%
percent of control binding at 10 µM [2, 8]: 99%
percent of control binding at 10 µM [3, 8]: 87%
percent of control binding at 10 µM [4, 8]: 100%
percent of control binding at 10 µM [5, 8]: 94%
percent of control binding at 10 µM [6, 8]: 96%

CNCc1ccc(-c2[nH]c3cc(F)cc4c3c2CCNC4=O)cc1 [Rucaparib]
percent of control binding at 10 µM [1, 9]: 64%
percent of control binding at 10 µM [2, 9]: 78%
percent of control binding at 10 µM [3, 9]: 88%
percent of control binding at 10 µM [4, 9]: 96%
percent of control binding at 10 µM [5, 9]: 91%
percent of control binding at 10 µM [6, 9]: 87%

Cn1ncnc1[C@H]1c2n[nH]c(=O)c3cc(F)cc(c23)N[C@@H]1c1ccc(F)cc1 [Talazoparib]
percent of control binding at 10 µM [1, 10]: 100%
percent of control binding at 10 µM [2, 10]: 89%
percent of control binding at 10 µM [3, 10]: 93%
percent of control binding at 10 µM [4, 10]: 94%
percent of control binding at 10 µM [5, 10]: 100%
percent of control binding at 10 µM [6, 10]: 97%

Source: PMC7026418, “The kinase polypharmacology landscape of clinical PARP inhibitors” (Scientific Reports, 2020)
